Results from paper PMC7767053, “Functional Analysis of Odorant-Binding Proteins 12 and 17 from Wheat Blossom Midge Sitodiplosis mosellana Géhin (Diptera: Cecidomyiidae)” (Insects, 2020).
Entries after “also recorded” stand apart in the source; their conditions may differ. Like-named read-outs stand apart in the source and are kept apart here.

Assays:
SmosOBP17 = SmosOBP17 (Sitodiplosis mosellana, UniProt A0A346RTY9); test: Fluorescence competitive binding assay with 1-NPN probe, recombinant SmosOBP17; conditions: for Ki: calculated from IC50, Ki = [IC50]/(1 + [1-NPN]/K1-NPN); for binding to SmosOBP17 (in words): fluorescence competitive binding
SmosOBP17, sequence (A0A346RTY9 entry or part of it): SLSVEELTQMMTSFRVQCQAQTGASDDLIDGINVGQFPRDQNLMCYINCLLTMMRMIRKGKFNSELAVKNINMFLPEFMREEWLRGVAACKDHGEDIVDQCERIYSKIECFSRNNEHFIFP
Protocol: (§1) To determine binding affinities of SmosOBP12 and SmosOBP17 to host plant volatile compounds, fluorescence competitive binding assays were conducted using 1-N-phenyl-naphthylamine (1-NPN) as the fluorescent probe. Twenty-eight volatile compounds from winter wheat (Table 2) were selected based on our previous research. Both the probe and candidate ligands were dissolved in chromatographic-grade methanol to obtain 1 mM stock solutions, whereas recombinant SmosOBPs were diluted in 20 mM Tris-HCl (pH 7.4) to 2 μM. Fluorescence intensity was detected on an F-4600 fluorescence spectrophotometer (Hitachi, Tokyo, Japan) with a 1 cm light path quartz cuvette. Slits of both excitation and emissions were 10 nm in width. The probe was excited at 337 nm, and emission spectra were recorded between 370 and 550 nm.
(§2) Affinities of SmosOBPs to tested volatile ligands were measured by competition assays: to the 1 mL solution containing 2 μM recombinant protein and 2 μM 1-NPN, 1 mM solution of each putative volatile ligand (in a 2 µL aliquot) was added to final concentrations of 2–14 μM for SmosOBP12 and 2–40 μM for SmosOBP17, respectively. Maximal fluorescence intensities were plotted against ligand concentrations. Data were obtained from three independent measurements.
(§3) The Kd value was calculated using GraphPad Prism 5 (GraphPad Software Inc., La Jolla, CA, USA) via nonlinear regression for a unique site of binding. The inhibition constant (Ki) of each ligand competitor was calculated from the corresponding IC50 value (the concentration of competitor displacing 50% of initial fluorescence intensity) according to the equation: Ki = [IC50]/(1 + [1-NPN]/K1-NPN), where [1-NPN] is the free concentration of 1-NPN, and K1-NPN is the dissociation constant of the SmosOBPs/1-NPN complex.

SmosOBP12 = SmosOBP12 (Sitodiplosis mosellana, UniProt A0A346RTY7); test: Fluorescence competitive binding assay with 1-NPN probe, recombinant SmosOBP12; conditions: for Ki: calculated from IC50, Ki = [IC50]/(1 + [1-NPN]/K1-NPN); for binding to SmosOBP12 (in words): fluorescence competitive binding
SmosOBP12, sequence (A0A346RTY7 entry or part of it): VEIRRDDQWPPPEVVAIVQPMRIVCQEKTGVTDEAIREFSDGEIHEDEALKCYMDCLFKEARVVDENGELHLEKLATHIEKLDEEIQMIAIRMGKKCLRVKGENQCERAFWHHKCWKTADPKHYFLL
Protocol: as §1, §2, §3

S. mosellana females = test: Y-tube olfactometer bioassay; type: in vivo, Sitodiplosis mosellana; conditions: 10 μL of 20 μg/μL in paraffin oil vs paraffin oil control; 60 females
Protocol: Behavioral responses of S. mosellana females to the 28 volatile ligands were measured in a glass Y-tube olfactometer. The base and two arms of the Y-tube are 15 cm in length and 25 mm in internal diameter. The angle between arms is 60°. A 10 μL aliquot of the test chemical in paraffin oil at a concentration of 20 μg/μL [45] was applied to a filter paper strip (20 × 20 mm), which was allowed to evaporate for 20 s and then placed into one of the two odor bottles. The other odor bottle contained a filter paper strip treated with 10 μL of paraffin oil as the control. Moist, activated-charcoal filtered air entered both odor bottles connected by Teflon tubing to their respective arms of the Y-tube. The airflow rate through the olfactometer was 100 mL/min, which was measured by a float rotor meter. A newly emerged female S. mosellana adult was introduced into the end of the base of the Y-tube, which was then immediately covered with a dark paper box. An office lamp (20 W) illuminated the joint of two arms to facilitate observation. The choice was made if the S. mosellana female walked or flew 5 cm past the Y junction within 5 min and remained there for at least 15 s. Otherwise, it would be recorded as no-choice. Odor source was renewed for every five individuals. After testing for 10 individuals, the Y-tube was thoroughly cleaned with 95% ethanol and dried, and the treatment and control arms were switched to avoid the directional bias. After one odor source was tested, the Y-tube, odor bottles, and Teflon tubing were cleaned and dried before reuse. All experiments were conducted in a laboratory with a temperature of 25 ± 1 °C from 5:00 to 9:00 p.m. Sixty female adults were tested in each treatment group, and each individual was used only once. The choice response of insects in each treatment group was analyzed by the chi-square test using SPSS 20.0 software (Chicago, IL, USA). Non-selecting insects were recorded but not included in the statistical analysis.

[1] = test system: female antennae of S. mosellana; set-up: method as in Cheng et al., 2020; conditions: ref Cheng et al., 2020; cited from earlier work
[2] = displacement of 1-NPN, 2 μM protein, 2 μM 1-NPN, ligand 2–40 μM, three independent measurements, read-out: SmosOBP17 IC50
[3] = displacement of 1-NPN, 2 μM protein, 2 μM 1-NPN, ligand 2–14 μM, three independent measurements, read-out: SmosOBP12 IC50

SMILES | Kd (SmosOBP17; 2 µM protein titrated with 1-NPN 0–24 µM, read-out: dissociation constant (Kd) of SmosOBP17 with 1-NPN) [µM] | Kd (SmosOBP12; 2 µM protein titrated with 1-NPN 0–24 µM, read-out: dissociation constant (Kd) of SmosOBP12 with 1-NPN) [µM] | behavioral response of S. mosellana female adults (S. mosellana females) | electrophysiological response on female antennae [1] | IC50 (SmosOBP17; [2]) [µM] | Ki (SmosOBP12; read-out: SmosOBP12 Ki) [µM] | IC50 (SmosOBP12; [3]) [µM] | Ki (SmosOBP17) [µM] | binding to SmosOBP17 (in words) (SmosOBP17) | IC50 (SmosOBP17) [µM] | IC50 (SmosOBP12) [µM] | Ki (SmosOBP12; SmosOBP12 Ki) [µM] | binding to SmosOBP12 (in words) (SmosOBP12)
c1ccc(Nc2cccc3ccccc23)cc1 [1-NPN, 1-N-phenyl-naphthylamine, reference compound] | 3.02 | 4.26 |  |  |  |  |  |  |  |  |  |  | 
C=CC(O)CCCCC (stereo not drawn) [1-Octen-3-ol] |  |  | intensive response; also recorded: significant attraction; also recorded: significantly attracted | strong electrophysiological responses | > 40 | 5.29 ± 0.11 | 6.55 ± 0.12 |  |  |  |  |  | 
CCCCC(CC)CO (stereo not drawn) [2-Ethyl hexanol] |  |  |  |  | > 40 | 6.36 ± 0.25 | 7.86 ± 0.31 | > 30 | did not bind |  |  |  | 
CCCCC(C)=O [2-Hexanone] |  |  |  |  |  |  |  |  |  | > 40 | 12.66 ± 0.08 | 10.25 ± 0.06 | 
CCCCCCCCCCCC(C)=O [2-Tridecanone] |  |  |  |  | > 40 | > 11.3 | > 14 | > 30 | did not show any affinity |  |  |  | did not show any affinity
CC1=CCC2C(C1)C2(C)C (stereo not drawn) [3-Carene] |  |  | intensive response; also recorded: significant attraction |  | > 40 | 3.84 ± 0.12 | 4.76 ± 0.15 |  |  |  |  |  | 
CCCC(O)CC (stereo not drawn) [3-Hexanol] |  |  | intensive response; also recorded: significant attraction; also recorded: significantly attracted | strong electrophysiological responses | 34.68 ± 0.34 | 3.33 ± 0.05 | 4.12 ± 0.07 | 26.05 ± 0.25 |  |  |  |  | 
CCCC(=O)CC [3-Hexanone] |  |  |  |  | 37.1 ± 0.06 | 6.26 ± 0.03 | 7.74 ± 0.04 | 27.87 ± 0.04 |  |  |  |  | 
CCCCC(=O)CCCC [5-Nonanone] |  |  |  |  | > 40 | 6.72 ± 0.1 | 8.32 ± 0.14 |  |  |  |  |  | 
CC/C=C\CCOC(C)=O [(Z)-3-Hexenyl acetate] |  |  | intensive response; also recorded: significant attraction; also recorded: significantly attracted | strong electrophysiological responses | > 40 | 7.18 ± 0.01 | 8.88 ± 0.02 |  |  |  |  |  | 
CC(C)(CO)[C@@H](O)C(=O)NCCCO [D-Panthenol] |  |  | intensive response; also recorded: significant attraction; also recorded: significantly attracted | strong electrophysiological responses | 38.01 ± 0.2 | 4.07 ± 0.05 | 5.04 ± 0.08 | 28.55 ± 0.15 |  |  |  |  | 
CCCCCCCCCCCC=O [Dodecanal] |  |  |  |  | > 40 | 8.06 ± 0.37 | 9.94 ± 0.44 | > 30 | did not bind |  |  |  | bound
CCCCCCCCCCCC [Dodecane] |  |  |  |  | > 40 | > 11.3 | > 14 | > 30 |  |  |  |  | 
CCCCCCC(=O)OCC [Ethyl heptanoate] |  |  | intensive response; also recorded: significant attraction; also recorded: significantly attracted | strong electrophysiological responses | 38.28 ± 0.12 | 7.29 ± 0.09 | 9 ± 0.11 | 28.76 ± 0.09 |  |  |  |  | 
CCCCCCCOC(C)=O [Heptyl acetate] |  |  | intensive response; also recorded: significant attraction; also recorded: significantly attracted | strong electrophysiological responses | 28.79 ± 0.09 | 3.34 ± 0.02 | 4.11 ± 0.02 | 21.63 ± 0.06 |  |  |  |  | 
CCCCCCOC(=O)CC [Hexyl propionate] |  |  |  |  |  | 5.9 ± 0.12 | 7.28 ± 0.16 |  |  |  |  |  | 
CC(=O)OCCCCCC(C)C [Isooctyl acetate] |  |  |  |  | > 40 | > 11.3 | > 14 | > 30 | did not show any affinity |  |  |  | did not show any affinity
CCCCCCCCCCCCCCC [Pentadecane] |  |  |  |  | > 40 | > 11.3 | > 14 | > 30 |  |  |  |  | 
CCCCCOC(=O)CCCC [Pentyl pentanoate] |  |  |  |  | > 40 | 4.24 ± 0.03 | 5.23 ± 0.01 |  |  |  |  |  | 
CCCCCCCCCCCCC [Tridecane] |  |  |  |  | > 40 | > 11.3 | > 14 | > 30 |  |  |  |  | 
CCCCCCCCCCCO [Undecanol] |  |  |  |  | > 40 | 4.39 ± 0.02 | 5.43 ± 0.03 |  |  |  |  |  | 
CC1=CC[C@@]23CC1C(C)(C)[C@@H]2CC[C@H]3C [α-Cedrene] |  |  |  |  | > 40 | > 11.3 | > 14 | > 30 | did not show any affinity |  |  |  | did not show any affinity
C/C1=C\CC/C(C)=C/CC(C)(C)/C=C/C1 [α-Humulene] |  |  |  |  | > 40 | > 11.3 | > 14 | > 30 | did not show any affinity |  |  |  | did not show any affinity
CC1=CCC2CC1C2(C)C (stereo not drawn) [α-Pinene] |  |  |  |  |  |  |  |  | did not bind | > 40 | 7.63 ± 0.06 | 6.17 ± 0.04 | 
C=C1CC/C=C(\C)CC[C@@H]2[C@@H]1CC2(C)C [β-Caryophyllene] |  |  |  |  |  |  |  |  | did not show any affinity | > 40 | > 14 | > 11.3 | did not show any affinity
